Experimental data reported in US20220169643A1, “ESTROGEN RECEPTOR DEGRADING PROTACS” (AstraZeneca AB, priority 2019, published 2022).

Target: T1, Estrogen Receptor Alpha Ligand binding domain (ER alpha-LBD (GST)) (Homo sapiens, UniProt P03372)
T1 construct: made in house
T1 sequence (P03372 307-554): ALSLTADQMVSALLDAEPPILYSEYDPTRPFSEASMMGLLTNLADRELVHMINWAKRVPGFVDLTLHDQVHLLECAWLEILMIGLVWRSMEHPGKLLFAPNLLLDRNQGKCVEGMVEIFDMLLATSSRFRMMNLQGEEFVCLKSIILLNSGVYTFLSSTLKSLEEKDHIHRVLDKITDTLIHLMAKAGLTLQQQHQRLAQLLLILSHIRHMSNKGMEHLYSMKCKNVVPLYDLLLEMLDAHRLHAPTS
Assay: ERα Binding Assay (LanthaScreen TR-FRET competition)
Conditions: competitive displacement of Fluormone ES2 tracer from recombinant human ER alpha-LBD (residues 307-554), 4 hours at room temperature
Method: The ability of compounds to bind to isolated Estrogen Receptor Alpha Ligand binding domain (ER alpha-LBD (GST)) was assessed in competition assays using a LanthaScreen™ Time-Resolved Fluorescence Resonance Energy Transfer (TR-FRET) detection end-point. For the LanthaScreen TR-FRET endpoint, a suitable fluorophore (Fluormone ES2, ThermoFisher, Product code P2645) and recombinant human Estrogen Receptor alpha ligand binding domain, residues 307-554 (expressed and purified in-house) were used to measure compound binding. The assay principle is that ER alpha-LBD (GST) is added to a fluorescent ligand to form a receptor/fluorophore complex. A terbium-labelled anti-GST antibody (Product code PV3551) is used to indirectly label the receptor by binding to its GST tag, and competitive binding is detected by a test compound's ability to displace the fluorescent ligand, resulting in a loss of TR-FRET signal between the Th-anti-GST antibody and the tracer. The assay was performed as follows with all reagent additions carried out using the Beckman Coulter BioRAPTR FRD microfluidic workstation: • 1. Acoustic dispense 120 nL of the test compound into a black low volume 384 well assay plates. • 2. Prepare 1×ER alpha-LBD/Tb-anti-GST Ab in ES2 screening buffer and incubate for 15 minutes. • 3. Dispense 6 μL of the 1×[…]/Th-anti-GST Ab reagent into each well of the assay plate followed by 6 μL of Fluorophore reagent into each well of the assay plate • 4. Cover the assay plate to protect the reagents from light and evaporation, and incubate at room temperature for 4 hours. • 5. Excite at 337 nm and measure the fluorescent emission signal of each well at 490 nm and 520 nm using the BMG PheraSTAR.
Compounds were dosed directly from a compound source microplate containing serially diluted compound (4 wells containing 10 mM, […] and 10 nM final compound respectively) to an assay microplate using the Labcyte Echo 550. The Echo 550 is a liquid handler that uses acoustic technology to perform direct microplate-to-microplate transfers of DMSO compound solutions and the system can be programmed to transfer multiple small nL volumes of compound from the different source plate wells to give the desired serial dilution of compound in the assay which is then back-filled to normalise the DMSO concentration across the dilution range.
In total 120 nL of compound plus DMSO were added to each well and compounds were tested in a 12-point concentration response format over a final compound concentration range of 10, 2.917, 1.042, 0.2083, 0.1, 0.0292, 0.0104, 0.002083, 0.001, 0.0002917, 0.0001042, and 0.00001 μM respectively. TR-FRET dose response data obtained with each compound was exported into a suitable software package (such as Origin or Genedata) to perform curve fitting analysis. Competitive ER alpha binding was expressed as an IC50 value. This was determined by calculation of the concentration of compound that was required to give a 50% reduction in tracer compound binding to ER alpha-LBD.

Compound | IC50 [nM]
C[C@@H]1Cc2c([nH]c3ccccc23)[C@@H](c2cnc(N3CCC(OCCCN4CCN(c5ccc6c(c5)CN(C5CCC(=O)NC5=O)C6=O)CC4)CC3)nc2)N1CC(C)(C)F (stereo partly drawn) [Example 38, 3-[5-(4-{3-[(1-{5-[(1R,3R)-2-(2-fluoro-2-methylpropyl)-3-methyl-2,3,4,9-tetrahydro-1H-beta-carbolin-1-yl]pyrimidin-2-yl}piperidin-4-yl)oxy]propyl}piperazin-1-yl)-1-oxo-1,3-dihydro-2H-isoindol-2-yl]piperidine-2,6-dione] | 3.6
C[C@@H]1Cc2c([nH]c3ccccc23)[C@@H](c2cnc(N3CCC(CN4CCOC5(CC4)CCN(c4ccc6c(c4)CN(C4CCC(=O)NC4=O)C6=O)CC5)CC3)nc2)N1CC(C)(C)F (stereo partly drawn) [Example 19, 3-(5-{10-[(1-{5-[(1R,3R)-2-(2-fluoro-2-methylpropyl)-3-methyl-2,3,4,9-tetrahydro-1H-beta-carbolin-1-yl]pyrimidin-2-yl}piperidin-4-yl)methyl]-7-oxa-3,10-diazaspiro[5.6]dodecan-3-yl}-1-oxo-1,3-dihydro-2H-isoindol-2-yl)piperidine-2,6-dione] | 5.3
